Among the data in patent US20240417406A1, “NITROGEN-CONTAINING TRICYCLIC COMPOUND AND PHARMACEUTICAL USE THEREOF” (JAPAN TOBACCO INC., priority 2021, published 2024) are IC50 values, retold here.

Molecules are shown by their SMILES.

The test deals with human PDHK2 (hPDHK2) (Homo sapiens (Human), UniProt Q15119). Kind of test: Inhibitory action of PDHK2 activity (PDH/hPDHK2 complex, residual PDH activity by NADH absorbance at 340 nm). The following applies: FLAG-tagged recombinant hPDHK2 with porcine heart PDH complex; PDHK reaction 45 min at room temperature. In kind it is biochemical. The method, then: In the case of human PDHK2 (hPDHK2, NCBI Reference Database Accession number NM_002611.4), modified hPDHK2 cDNA wherein FLAG-Tag sequence was added to the N terminal of hPDHK2 cDNA clone (pReceiver-M01/PDK2-GeneCopoeia) as the base was prepared by polymerase chain reaction (PCR) and ligated to the NdeI/EcoRI site of pET-17b vector (Merck KGaA, Catalog Number 69663-3). The recombinant construct was transformed into Escherichia coli DH5a. The recombinant clones were identified, and plasmid DNA was isolated and subjected to the DNA sequence analysis. One clone which had the expected nucleic acid sequence was selected for expression work.
For expression of hPDHK2 activity, Escherichia coli strain BL21(DE3) cells (Merck KGaA, Catalog Number 69450-4) were transformed with the pET17b vector containing modified hPDHK2 cDNA. The Escherichia coli were grown to an optical density 0.6 ([…]) at 30° C. Protein expression was induced by the addition of 500 μmol/L isopropyl-β-thiogalactopyranoside. The Escherichia coli were cultured at 20° C. for 17 to for 18 hr and harvested by centrifugation. The harvested Escherichia coli was resuspended in a suspension buffer (20 mmol/L HEPES-NaOH, 500 mmol/L sodium chloride, 1% ethylene glycol, 0.1% Pluronic (registered trademark) F-68 (pH 8.0), cOmplete, EDTA-free (Roche) (pH 8.0)), and disrupted by a microfluidizer M-110H (MIZUHO INDUSTRIAL CO., LTD.). The precipitate was removed by centrifugation and the supernatant was added to DDDDK-tagged Protein PURIFICATION GEL (MEDICAL & BIOLOGICAL LABORATORIES CO., LTD., Code No. 3329). DDDDK-tagged Protein PURIFICATION GEL was washed with a washing buffer (20 mmol/L HEPES-NaOH, 500 mmol/L sodium chloride, 1% ethylene glycol, 0.1% Pluronic F-68 (pH 8.0)) and the bound protein was eluted with elution buffer 1 (20 mmol/L HEPES-NaOH, 100 μg/mL peptide (amino acid sequence DYKDDDDK) (SEQ ID NO: 1), 500 mmol/L sodium chloride, 1% ethylene glycol, 0.1% Pluronic F-68 (pH 8.0)). The eluted fractions containing FLAG-Tagged protein were pooled, concentrated by an ultrafiltration method, added to a gel filtration column (HiLoad 26/60 Superdex 200 (GE Healthcare Life Sciences, Code No. 17-1070-01)), and eluted with elution buffer 2 (20 mmol/L HEPES-NaOH, 150 mmol/L sodium chloride, 0.5 mmol/L ethylenediaminetetraacetic acid (EDTA), 1% ethylene glycol, 0.1% Pluronic F-68 (pH 8.0)). The eluted fractions were pooled and preserved at −80° C.
PDH (porcine heart PDH complex, Sigma P7032) and 0.5 μg/mL hPDHK2 were mixed in an assay buffer (50 mmol/L 3-morpholinopropanesulfonic acid (pH 7.0), 20 mmol/L dipotassium hydrogen phosphate, 60 mmol/L potassium chloride, 2 mmol/L magnesium chloride, 0.4 mmol/L EDTA, 0.2% poloxamer, 2 mmol/L dithiothreitol) so that the final concentration of PDH was 0.025 U/mL, and the mixture was incubated at 4° C. overnight to obtain a PDH/hPDHK2 complex solution.
PDH was mixed with the assay buffer so that the final concentration was 0.025 U/mL, and the mixture was incubated at 4° C. overnight to prepare a PDH solution.
The test compounds were diluted with DMSO. […] DMSO (1.5 μL) was added to control wells instead of test compound. In addition, DMSO (1.5 μL) was added to blank wells instead of the test compound, and PDH solution was added instead of the PDH/hPDHK2 complex solution. To measure an inhibitory action of the test compound on the PDHK activity inherent in the PDH solution, a test compound was added and the PDH solution instead of the PDH/hPDHK2 complex solution was added to a blank+test compound well.
Then, 10 μL of substrates (5 mmol/L sodium pyruvate, 5 mmol/L Coenzyme A, 12 mmol/L NAD, 5 mmol/L thiamine pyrophosphate, diluted with assay buffer) were added. The mixture was incubated at room temperature for 90 min, and the residual PDH activity was measured.
The absorbance of each well at 340 nm was measured using a microplate reader to detect NADH produced by the PDH reaction. […]
Turning to `C[C@H]1Cn2nc(C(F)(F)F)cc2-c2cnnc([C@@](C)(O)C(F)(F)F)c21` (racemic) [Example 99, mixture of (R)-1,1,1-trifluoro-2-((R)-5-methyl-9-(trifluoromethyl)-5,6-dihydropyrazolo[1′,5′:1,2]pyrido[3,4-d]pyridazin-4-yl)propan-2-ol and (S)-1,1,1-trifluoro-2-((S)-5-methyl-9-(trifluoromethyl)-5,6-dihydropyrazolo[1′,5′:1,2]pyrido[3,4-d]pyridazin-4-yl)propan-2-ol], the IC50 was 23.4 nM. Next, `C[C@H]1Cc2nn(C(F)F)cc2-c2onc([C@@](C)(O)C(F)(F)F)c21` (racemic) [Example 22]: 22.4 nM; `C[C@H]1Cn2nc(C34CCC(C#N)(CC3)CC4)cc2-c2cnnc([C@@](C)(O)C(F)(F)F)c21` (racemic) [Example 103, 4-[(R)-5-methyl-4-((R)-1,1,1-trifluoro-2-hydroxypropan-2-yl)-5,6-dihydropyrazolo[1′,5′:1,2]pyrido[3,4-d]pyridazin-9-yl]bicyclo[2.2.2]octane-1-carbonitrile and 4-[(S)-5-methyl-4-((S)-1,1,1-trifluoro-2-hydroxypropan-2-yl)-5,6-dihydropyrazolo[1′,5′:1,2]pyrido[3,4-d]pyridazin-9-yl]bicyclo[2.2.2]octane-1-carbonitrile]: 24.3 nM; `C[C@H]1Cn2nc(O[C@H]3C[C@](C)(C#N)C3)cc2-c2onc([C@@](C)(O)C(F)(F)F)c21` [Example 63, (1R,3r)-1-methyl-3-(((R)-4-methyl-3-((R)-1,1,1-trifluoro-2-hydroxypropan-2-yl)-4,5-dihydroisoxazolo[5,4-c]pyrazolo[1,5-a]pyridin-8-yl)oxy)cyclobutane-1-carbonitrile]: 9.1 nM. Take `C[C@H]1Cn2nc(O[C@H]3C[C@](C)(C#N)C3)cc2-c2onc([C@@](C)(O)C(F)(F)F)c21` (racemic) [Example 47]: the half-maximal inhibitory concentration (IC50) was determined as 25.8 nM. Next, `C[C@H]1Cn2nc(C34CCC(C#N)(CC3)C4)cc2-c2cnc([C@@](C)(O)C(F)(F)F)n21` [Example 86, 4-((S)-5-methyl-3-((R)-1,1,1-trifluoro-2-hydroxypropan-2-yl)-5,6-dihydroimidazo[1,5-a]pyrazolo[5,1-c]pyrazin-9-yl)bicyclo[2.2.1]heptane-1-carbonitrile]: 14.1 nM; `C[C@H]1Cn2nc(N3CCOCC3)cc2-c2cnc([C@@](C)(O)C(F)(F)F)n21` [Example 74]: 18.4 nM. Next, `COc1cc2n(n1)C[C@H](C)n1c-2cnc1[C@@](C)(O)C(F)(F)F` [Example 67]: 11.5 nM; `C[C@H]1Cn2nc(C34CCC(C(C)(C)O)(CC3)CC4)cc2-c2cnc([C@@](C)(O)C(F)(F)F)n21` [Example 75]: 10 nM. Next, `C[C@H]1Cn2nc(N3CC4(C3)CC(F)(F)C4)cc2-c2cnc([C@@](C)(O)C(F)(F)F)n21` [Example 84, (R)-2-((S)-9-(6,6-difluoro-2-azaspiro[3.3]heptan-2-yl)-5-methyl-5,6-dihydroimidazo[1,5-a]pyrazolo[5,1-c]pyrazin-3-yl)-1,1,1-trifluoropropan-2-ol]: 36.5 nM.

Regarding `C[C@H]1Cc2nn(CCC(C)(C)O)cc2-c2onc([C@@](C)(O)C(F)(F)F)c21` [Example 41], the IC50 came to 9.1 nM.

Consider `C[C@H]1Cc2nn([C@H]3CC[C@](C)(O)CC3)cc2-c2onc([C@@](C)(O)C(F)(F)F)c21` (racemic) [Example 55, (1S,4r)-1-methyl-4-((S)-4-methyl-3-((R)-1,1,1-trifluoro-2-hydroxypropan-2-yl)-4,5-dihydro-7H-isoxazolo[5,4-e]indazol-7-yl)cyclohexan-1-ol and enantiomer thereof], for which the IC50 came out at 14.3 nM. Next, `C[C@H]1Cn2nc(OCC34CCC(C#N)(CC3)C4)cc2-c2cnc([C@@](C)(O)C(F)(F)F)n21` [Example 90]: 30.5 nM.

`COC(=O)C12CC(c3nnc4n3C[C@H](C)c3c([C@@](C)(O)C(F)(F)F)noc3-4)(C1)C2` [Example 10]: the IC50 was determined as 9.4 nM. Regarding `Cc1nnc2n1C[C@H](C)c1c([C@@](C)(O)C(F)(F)F)noc1-2` [Example 6], the half-maximal inhibitory concentration (IC50) turned out to be 11.7 nM. Next, `C[C@H]1Cn2c(nnc2C23CC(C(C)(C)O)(C2)C3)-c2onc([C@@](C)(O)C(F)(F)F)c21` [Example 13]: 7.5 nM; `C[C@H]1Cc2nn(C3CC3)cc2-c2onc([C@@](C)(O)C(F)(F)F)c21` [Example 19]: 13.8 nM; `C[C@H]1Cn2nc(OC(F)F)cc2-c2onc([C@@](C)(O)C(F)(F)F)c21` (racemic) [Example 45]: 26.4 nM. On to `C[C@H]1Cn2nc(C34CCC(CO)(CC3)OC4)cc2-c2cnc([C@@](C)(O)C(F)(F)F)n21` [Example 85], for which the IC50 amounted to 16.6 nM. As for `C[C@H]1Cc2c(cnn2[C@H]2C[C@](C)(C#N)C2)-c2onc([C@@](C)(O)C(F)(F)F)c21` (racemic) [Example 53, (1S,3r)-1-methyl-3-((S)-4-methyl-3-((R)-1,1,1-trifluoro-2-hydroxypropan-2-yl)-4,5-dihydro-6H-isoxazolo[5,4-e]indazol-6-yl)cyclobutane-1-carbonitrile and enantiomer thereof], the IC50 amounted to 8.8 nM. Next, `COCCOc1cc2n(n1)C[C@@H](C)c1c([C@](C)(O)C(F)(F)F)noc1-2` [Example 43]: 28.2 nM; `C[C@H]1Cn2c(nnc2C23CCC(C(C)(C)O)(CC2)CC3)-c2onc([C@@](C)(O)C(F)(F)F)c21` [Example 12]: 6 nM. Next, `C[C@H]1Cn2nc(C34CC(C#N)(C3)C4)cc2-c2cnc([C@@](C)(O)C(F)(F)F)n21` [Example 72]: 12.3 nM; `C[C@H]1Cn2nc(C34CCC(C#N)(C3)C4)cc2-c2cnc([C@@](C)(O)C(F)(F)F)n21` [Example 91, 4-((S)-5-methyl-3-((R)-1,1,1-trifluoro-2-hydroxypropan-2-yl)-5,6-dihydroimidazo[1,5-a]pyrazolo[5,1-c]pyrazin-9-yl)bicyclo[2.1.1]hexane-1-carbonitrile]: 23.3 nM; `C[C@H]1Cn2nc(OCC3COC3)cc2-c2onc([C@@](C)(O)C(F)(F)F)c21` (racemic) [Example 46]: 15.9 nM. In the case of `C[C@H]1Cn2nc(O[C@H]3CCOC3)cc2-c2onc([C@@](C)(O)C(F)(F)F)c21` (racemic) [Example 36], the IC50 came out at 14 nM. Next, `C[C@H]1Cc2c(cnn2C23CC(C#N)(C2)C3)-c2onc([C@@](C)(O)C(F)(F)F)c21` (racemic) [Example 51]: 13.7 nM; `C[C@H]1Cn2nc(N3C[C@@H]4C[C@H]3CO4)cc2-c2cnc([C@@](C)(O)C(F)(F)F)n21` [Example 81]: 29.8 nM; `C[C@H]1Cc2c(cnn2[C@H]2C[C@@](C)(C#N)C2)-c2onc([C@@](C)(O)C(F)(F)F)c21` (racemic) [Example 57, (1R,3s)-1-methyl-3-((S)-4-methyl-3-((R)-1,1,1-trifluoro-2-hydroxypropan-2-yl)-4,5-dihydro-6H-isoxazolo[5,4-e]indazol-6-yl)cyclobutane-1-carbonitrile and enantiomer thereof]: 28.5 nM. Next, `C[C@H]1Cc2c(cnn2C2CC2)-c2onc([C@@](C)(O)C(F)(F)F)c21` (racemic) [Example 18]: 12.5 nM.

One may read the IC50 as the concentration that gives 50% inhibition.
